Data from patent US20250072433A1, “ORGANIC CONCENTRATED VITAMINE-PHYTOHORMONE WITH NATURAL BIO-STIMULANT PROPERTIES AS FERTILIZER CONCENTRATED EXTRACT OF DUCKWEED ARACEA FAMILY OF PLANTS FORMALY KNOWN AS LEMNACEAE SINGLE OR COMBINED SPECIES THAT CAN INCLUDE ALSO COMPOUNDED MULTIPLE FORMULATED AQUATIC PLANTS EXTRACTS TO NATURALY …” (priority 2021, published 2025).
Entries after “also recorded” stand apart in the source; their conditions may differ.

System: mung bean hypocotyl cuttings
Assay: Comparative mung bean bioassay: rooting response of stem cuttings versus seaweed products and IAA/IBA standards (Example 6)
Type: in vivo
Conditions: for pH: 30 mg/L; for stem growth, length: 1% dilution; for concentration with the higher number of roots developed: range 0 to 30 mg/L
Excerpt: A composition comparative study further embodiment described in detail in Example 6. to determine the concertation of Auxins in relation to Standard indole-3-Butiric acid (IBA) and indole-3-acetic (IAA) embodied in the examples Duckweed Biotech product is a combination of three aquatic plants of the Aracea family, which is compared with commercial seaweed products: Product (1) “K” and Product (2) “M”. The dilutions were made from the liquid concentrated products and the Duckweed Biotech from a natural concentrate extraction of three duckweed species. The equivalent phytohormone activity of IAA and IBA was established by the number of roots to the corresponding treatment dilution and interpolating the number of roots to the corresponding hormone concentration to obtain the total activity in mg/L of the commercial product.
Two commercial giant brown kelp seaweed products, Product (1) “K” made of Ecklonia maxima and Product (2) “M” made of Ascophyllum nodosum were compared with the Duckweed Biotech Product “D” made of a combination of Duckweed aquatic plants of the Araceae family of plants formally known as Lemnaceae family of plants. For the test, a series of dilutions from 0% to 50% were made from the concentrated commercial products.
The preparation of standards was performed using a concentration range of 0, 1, 2, 5, 10, 15, 20 and 30 mg/L of indole-3-butyric acid (IBA) and indole-3-acetic acid (IAA) as shown in Table 20. A dose growth response curve for rooting ability was produced using these auxins.
The mung bean bioassay was used to evaluate plant growth and rooting stimulation response of three products: Duckweed Biotech Product “D”, Product (1) “K” and Product (2) “M”.
The seeds of mung bean seeds were rinse thoroughly with water and soak for […]. in DI water. 2. The seeds were planted in microgreen trays for germination process at 26° C. After 8 days, uniform hypocotyl cuttings with 8 cm length with 2 primary leaves and without cotyledon were transferred to the treatment vials. The cuttings are rinsed with DI water and then soak in 20 mL treatment test solutions for 8 hr. The treatment solutions include Duckweed Biotech Product “D”, Product (1) “K”, Product (2) “M”, indole-3-acetic acid (IAA), and indole-3-butyric acid (IBA). The treatments are follows: • IBA & IAA concentrations: 0, 1, 2, 5, 10, 15, 20 and 30 mg/L • Duckweed Biotech Product “D” Conc.: 0, 0.5, 1, 2, 5, 10, 20 and 50% • Product (1) “K” Conc.: 0, 0.5, 1, 2, 5, 10, 20 and 50% • Product (2) “M” Conc.: 0, 0.5, 1, 2, 5, 10, 20 and 50%
3 After the treatments, the seedling base cuttings were rinsed with DI water and transferred to clean vials with glass beads containing 60 mL of DI water for 8 days. Two cuttings were placed in each vial and two vials were used for each treatment. The vials are left at 28±3° C. ambient air temperature and under lighting at 135 μmol photons m^−2 s^−1 in a 16-h day/8-h night cycle. The humidity is maintained over 60%.
4. After 8 days, the number of roots per hypocotyl was recorded. The plant quality and stem length were also evaluated. The data collected was organized and analyzed using Microsoft Excel
The plant growth and rooting response of each treatment were recorded after 8 days. The rooting response was evaluated based on number of roots developed per cutting. The average number of roots of three cuttings per treatment was used to determine the effectiveness of the treatments. Plant quality and stem length were also recorded. […] The plants with higher rooting response were found at 2% with duckweed treatment with 67 roots. Whereas Product (1) “K” at 20% dilution stimulated root production with 46 roots and Product (2) “M” at 2% dilution with 32 roots. A decline of rooting stimulation was found at 50% dilution for all evaluated products (FIG. 35 & FIG. 36) that coincides with previous research literature for brown kelp extract products. […]

## O=C(O)CCCc1c[nH]c2ccccc12 [IBA, indole-3-butyric acid]
  pH: 6.53
  stem growth, length: 15 cm
  concentration with the higher number of roots developed: 30 mg/L
In vivo
  root formation, IBA compared with IAA: stimulated more roots in all concentrated treatments than IAA; also recorded: more effective than indol-3-acetic acid (IAA) in root development

## O=C(O)Cc1c[nH]c2ccccc12 [IAA, indole-3-acetic acid]
  pH: 6.92
  stem growth, length: 15 cm
  concentration with the higher number of roots developed: 30 mg/L
